Results on nine compounds are retold here after US20190375764A1, “SALTS OF A HETEROCYCLIC COMPOUND AND CRYSTALLINE FORMS, PROCESSES FOR PREPARING, THERAPEUTIC USES, AND PHARMACEUTICAL COMPOSITIONS THEREOF” (Sunovion Pharmaceuticals Inc., priority 2018, published 2019).

Common to all, as to assay type: physicochemical
Data set [1] can be described thus: Temperature controlled XRPD (crystal form on heating). The following applies: heating up to melting. As to the method:
Temperature controlled XRPD was measured by the X'pert-MPD with an Anton Paar TCU 100 Temperature Control Unit. Sample was measured from 30° C. to 250° C. or 270° C. with 10° C. increments. Measurement conditions were as follows: range: 4-30°, step: 0.017°, time per step: 100 s.
FT-Raman, XRPD, DSC, TGA, and DVS instruments and techniques are similar to those in Example 3. Temperature controlled XRPD was measured by X'pert-Pro MPD (Spectris) with TCU 100 Temperature Control Unit (Anton Paar). The temperature of the sampling stage was increased step by step as programmed and XRPD patterns of sample were measured at each step. The measurement condition is shown below: • Range angle: From 4 to 30° • Step size: 0.017° • Time per step: 100 s

Data set [2] is described as follows: Dynamic vapor sorption (DVS) moisture sorption isotherm. Particulars: for hygroscopicity: result of DVS, in words. How it is done:
DVS moisture sorption isotherms were generated using a Hiden Analytical IGA-sorp moisture sorption analyzer. Samples were run as received without pre-analysis drying. Each sample was equilibrated between about 30 and 120 minutes at each relative humidity (RH) step. Temperature was fixed at about 25° C. and the relative humidity steps (0 to 95% RH) were in 5-10% increments. Sample sizes ranged from 3 to 30 mg. After DVS measurement, XRPD was measured in order to check the solid form. Dynamic Vapor sorption (DVS) moisture sorption isotherms were generated using IGA-sorp moisture sorption analyzer (Hiden Analytical). Sample measurements were run without drying before analyses. XRPD was measured in order to check any changes of the solid form after the moisture sorption/desorption. The measurement condition is shown below: • Time at each RH steps: From 30 to 120 minutes • Relative humidity steps: 5 or 10% steps • Temperature: 25° C.

A short description of data set [3]: Crystal form stability on humidity, storage and drying (XRPD / FT-Raman). The following applies: for crystal form before and after DVS measurement (XRPD): moisture sorption/desorption. As to the method:
DVS moisture sorption isotherms were generated using a Hiden Analytical IGA-sorp moisture sorption analyzer. Samples were run as received without pre-analysis drying. Each sample was equilibrated between about 30 and 120 minutes at each relative humidity (RH) step. Temperature was fixed at about 25° C. and the relative humidity steps (0 to 95% RH) were in 5-10% increments. Sample sizes ranged from 3 to 30 mg. After DVS measurement, XRPD was measured in order to check the solid form. FT-Raman analyses were performed by using MultiRAM (Bruker Optics). Each suspension or dry powder sample was measured from out of glass vial. The measurement condition is shown below: • Excitation wavelength: 1064 nm • Laser power: 500 mW • Wavenumber: 4 cm^−1 • Sample scan: 128 times X-ray Powder Diffraction (XRPD) spectra were obtained by X'pert Pro MPD (Spectris). X-rays was generated with Cu Kα radiation. The powder samples were put on the reflection free sample plate. The XRPD patterns were analyzed by HighScorePlus. The measurement condition is shown below: • Range angle: From 4 to 30°, to 40° and to 65° (2θ) • Step size: 0.017° • Time per step: 100 s Dynamic Vapor sorption (DVS) moisture sorption isotherms were generated using IGA-sorp moisture sorption analyzer (Hiden Analytical). Sample measurements were run without drying before analyses. XRPD was measured in order to check any changes of the solid form after the moisture sorption/desorption. The measurement condition is shown below: • Time at each RH steps: From 30 to 120 minutes • Relative humidity steps: 5 or 10% steps • Temperature: 25° C.

Setting [4] is: humidity increased from 0% RH to 95% RH.

Entries after “also recorded” stand apart in the source; their conditions may differ.

As for `CNC[C@H]1OCCn2nc3ccccc3c21.O=S(=O)(O)c1ccccc1` [Form BA, (R)-1-(3,4-dihydro-1H-[1,4]oxazino[4,3-b]indazol-1-yl)-N-methylmethanamine benzenesulfonate], the “transformation of crystal form, temperature controlled XRPD” value (“transformation of crystal form” for short) in data set [1] is reported as “not transformed to any other polymorph”. For the same compound, the “weight gain (DVS)” value in data set [2] (at 90% RH, another batch of Form BA) is “about 1%”; in data set [2] (at 90% RH, one batch of Form BA), “about 2%”; in data set [2] (at 95% RH), “about 2%”; in data set [2] (at 95% RH, another batch of Form BA), “about 2%”; in data set [2] (at 95% RH, one batch of Form BA), “about 8%”. The hygroscopicity result in data set [2] (benzenesulfonate) is given as “less hygroscopicity; also recorded: good hygroscopicity behavior”; in data set [2] (listed as besylate, benzenesulfonate) it was “less hygroscopicity”.

In the case of `CNC[C@H]1OCCn2nc3ccccc3c21.O=C(O)/C=C/C(=O)O` [Form FA, (R)-1-(3,4-dihydro-1H-[1,4]oxazino[4,3-b]indazol-1-yl)-N-methylmethanamine fumarate], in data set [1], the “transformation of crystal form” value is on record as “not transformed to any other polymorph”.

Take `CNC[C@H]1OCCn2nc3ccccc3c21.O=C(O)/C=C/C(=O)O` [Form FB, (R)-1-(3,4-dihydro-1H-[1,4]oxazino[4,3-b]indazol-1-yl)-N-methylmethanamine fumarate]: the “crystal form after storage under humidity” value in data set [3] (75% RH overnight (NaCl water suspension)) is “Form FA was observed”. In addition, the “crystal form under dry condition or heated” value in data set [3] (dry condition or heated, quickly transformed back to hydrous form in the air) is “anhydrous form can be obtained”. For the same compound, in data set [2] (at over 75% RH), the “weight gain (DVS)” value is given as “about 5%”.

As for `CNC[C@H]1OCCn2nc3ccccc3c21.Cl` [Form HA, (R)-1-(3,4-dihydro-1H-[1,4]oxazino[4,3-b]indazol-1-yl)-N-methylmethanamine hydrochloride], the “crystal form before and after DVS measurement (XRPD)” value in data set [3] (hydrochloride) is on record as “transformed to Form HC mixed with an unidentified polymorph”. Further, the “weight gain (DVS)” value in data set [2] (at 95% RH) was “over 100%”. Moreover, the hygroscopicity entry in data set [2] (hydrochloride) is listed as “Highly hygroscopic”.

For the compound `CNC[C@H]1OCCn2nc3ccccc3c21.Cl` [Form HB, (R)-1-(3,4-dihydro-1H-[1,4]oxazino[4,3-b]indazol-1-yl)-N-methylmethanamine hydrochloride], the “crystal form stability on isolation” value in data set [3] (observed only in a suspension state, filtrated and dried, hydrochloride) is given as “transformed to Form HC or Form HA; also recorded: Not stable”.

Regarding `CNC[C@H]1OCCn2nc3ccccc3c21.Cl` [Form HC, (R)-1-(3,4-dihydro-1H-[1,4]oxazino[4,3-b]indazol-1-yl)-N-methylmethanamine hydrochloride], in data set [3] (75% RH for 1 day, saturated sodium chloride water), the “crystal form after storage at high-humid condition (Raman)” value is “transformed to Form HD”. Moreover, the crystal form transformation entry in data set [3] (humidity level of more than 70% RH) is recorded as “Transformed to Form D”. Further, the “crystal form before and after DVS measurement (XRPD)” value in data set [3] (hydrochloride) is given as “basically stable”. Also, the “weight gain (DVS)” value amounted to 6.5% in data set [2] (between 60% RH and 70% RH (Form HC transformed to Form HD)); 9.3% in data set [2] (setting [4]). For the same compound, the hygroscopicity entry in data set [2] (hydrochloride) was “hygroscopic”.

As to `CNC[C@H]1OCCn2nc3ccccc3c21.Cl` [Form HD, (R)-1-(3,4-dihydro-1H-[1,4]oxazino[4,3-b]indazol-1-yl)-N-methylmethanamine hydrochloride], the crystal form transformation result in data set [3] (at room temperature) was “Transformed to Form C”.

Consider `CNC[C@H]1OCCn2nc3ccccc3c21.Cc1ccc(S(=O)(=O)O)cc1` [Form TA, (R)-1-(3,4-dihydro-1H-[1,4]oxazino[4,3-b]indazol-1-yl)-N-methylmethanamine tosylate], for which the “transformation of crystal form” value in data set [1] (tosylate) was “not transformed to any other polymorph; also recorded: stable in terms of the crystal form and not transformed to another form until the melting point”. Further, the “crystal form before and after DVS measurement (XRPD)” value in data set [3] is reported as “no changes of the crystal form”. The “weight gain (DVS)” value is reported as “about 1%” in data set [2] (at 95% RH) and roughly 1% in data set [2] (setting [4]). Besides, the hygroscopicity result is on record as “less hygroscopicity” in data set [2] (listed as Tosylate, tosylate); “less hygroscopicity” in data set [2] (listed as tosylate, tosylate); “less hygroscopicity; also recorded: good hygroscopicity behavior; also recorded: non-hygroscopicity” in data set [2] (tosylate).

Turning to `CNC[C@H]1OCCn2nc3ccccc3c21.O=C(O)/C=C/C(=O)O` [fumarate, (R)-1-(3,4-dihydro-1H-[1,4]oxazino[4,3-b]indazol-1-yl)-N-methylmethanamine fumarate], the hygroscopicity entry in data set [2] is “no hygroscopicity”.
